Laboratory results as given in patent US11912693B2, “Compounds for modulating S1P1 activity and methods of using the same” (TREVENA, INC., priority 2017, dated 2024).

What was measured:
[1] = system: peripheral blood lymphocytes; experiment: Peripheral blood lymphocytes (lymphopenia) in c57bl/6 mice, acute and chronic studies; format: in vivo; settings: peripheral blood lymphocytes vs vehicle; 6 mg/kg sc, 7 days
Procedure: Compounds were tested for changes in peripheral blood lymphocytes in c57bl/6 mice. In acute studies, animals (n=5/group) were dosed subcutaneously with test compound at a dose of 3 mg/kg. Animals were sacrificed at specific time points and 500 μl of whole blood was collected in EDTA (K2) Eppendorf tubes. Blood was stored on ice and shipped immediately overnight delivery to Charles River Laboratories for analysis. CRL ran samples through their WBC/differential panel on an Advia 120 instrument. We received peripheral lymphocyte counts (10^3 cells/μl) for each blood sample. Treatment group means were compared to a vehicle treatment group for statistical significance. In chronic studies, animals (n=6-8/group) were dosed subcutaneously with test compound either in a dose response paradigm (highest dose of 3 mg/kg) or in a screening paradigm at 6 mg/kg for seven days. On the seventh day, animals were sacrificed 45 minutes after the final dose. Whole blood was collected and analyzed as described for acute studies. […]

[2] = system: oxaliplatin induced peripheral neuropathy; experiment: Reversal of allodynia induced by oxaliplatin in mice (von Frey frequency method); format: in vivo, c57bl/6 mice; settings: tested 30 min after dosing
Procedure: Compounds were tested for efficacy in mouse models of chemotherapy induced peripheral neuropathy. […] For these studies […]/6 mice are habituated to the test environment and baseline measurements of pain sensitivity are assessed. To determine mechanical responses, the threshold for responses to punctate mechanical stimuli (mechanical hyperalgesia) was tested according to the frequency method. In brief, the plantar surface of the animal hindpaw was stimulated with a single von Frey monofilament (0.4 g) for approximately 1-2 seconds. If there was a withdrawal response, it was recorded as a positive response. A response was defined as a lifting or shaking of the paw upon stimulation. This was repeated ten times for each mouse. The final measurement for each mouse is the % non-response to stimulation for the ten trials. The % non-response to stimulation is converted to a % MPE. For paclitaxel induced peripheral neuropathy, a series of injections of PAC (6 mg/kg, i.p.) on days 1, 3, 5 and 7 is used to induce peripheral neuropathy. After approximately 14 days from the initiation of PAC injections, animals are re-assessed for mechanical sensitivity. […] On test day animals are dosed with compounds either subcutaneously or orally and tested for mechanical response by the frequency method either 30 min (s.c.) or 60 min (p.o.) after drug administration. Data is presented as a % MPE. For oxaliplatin induced peripheral neuropathy, a series of injections of OXA (4 mg/kg, i.p.) on days 1-5 is used to induce peripheral neuropathy. After approximately 14 days from the initiation of PAC injections, animals are re-assessed for mechanical sensitivity. […] On test day animals are dosed with compounds subcutaneously and tested for mechanical response by the frequency method 30 min after drug administration. Data is presented as a % MPE. One or more of the compounds show reversal of chemotherapeutic induced peripheral neuropathy.

[3] = system: paclitaxel induced peripheral neuropathy; experiment: Reversal of allodynia induced by paclitaxel in mice (s.c. or p.o., von Frey frequency method); format: in vivo, c57bl/6 mice; settings: Mus musculus; for inhibition in vivo at 1 mg/kg: sc, 0.5 h, 1 mg/kg s.c., tested 30 min after dosing, read-out: Screen @ 1 mg/kg sc (% MPE); for inhibition in vivo at 3 mg/kg: po, 1 h, 3 mg/kg p.o., tested 60 min after dosing, read-out: Screen @ 3 mg/kg po (% MPE)
Outline: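 Neuropathy was induced in mice by paclitaxel (6 mg/kg i.p., days 1, 3, 5, 7) or oxaliplatin (4 mg/kg i.p., days 1-5), with re-testing about 14 days later. Compounds were given s.c. (tested at 30 min) or p.o. (tested at 60 min; paclitaxel only). A 0.4 g von Frey filament was applied ten times per paw, and % non-response was converted to % MPE.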

[4] = molecular target: T1, human sphingosine-1-phosphate receptor 1 (S1P1) (Homo sapiens (Human), UniProt P21453); experiment: Inhibition of cAMP production (HTRF cAMP HiRange), S1P1 CHO-K1 cells; format: cell-based; settings: for hS1P1 cAMP pEC50: inhibition of cAMP production, S1P1 CHO-K1 cells; for Emax: CHO-K1, efficacy (SPAN) normalized to fingolimod, read-out: hS1P1 cAMP SPAN
Outline: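 CHO-K1 cells stably co-expressing human S1P1 (C-terminal Prolink tag) and EA-β-arrestin2 were grown in AssayComplete Media 6 at 37° C. and 5% CO2, plated, and incubated overnight. Agonist-driven inhibition of intracellular cAMP was read by TR-FRET with the HTRF cAMP HiRange kit on a PheraStar reader. Potency is pEC50, and efficacy (SPAN) is normalized to fingolimod.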
Target sequence in this assay (P21453 whole entry, looked up): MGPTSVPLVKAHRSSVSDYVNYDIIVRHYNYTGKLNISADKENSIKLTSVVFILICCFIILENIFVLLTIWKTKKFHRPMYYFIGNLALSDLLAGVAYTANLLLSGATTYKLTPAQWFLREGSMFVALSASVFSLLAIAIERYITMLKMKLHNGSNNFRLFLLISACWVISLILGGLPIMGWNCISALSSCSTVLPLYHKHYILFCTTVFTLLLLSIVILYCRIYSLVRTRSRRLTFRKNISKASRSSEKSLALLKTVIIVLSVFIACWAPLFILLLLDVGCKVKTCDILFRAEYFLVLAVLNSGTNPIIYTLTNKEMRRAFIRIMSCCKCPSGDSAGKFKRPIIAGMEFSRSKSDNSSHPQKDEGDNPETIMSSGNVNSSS

[5] = molecular target: T1, human sphingosine-1-phosphate receptor 1 (S1P1); experiment: β-Arrestin2 recruitment assay (PathHunter), S1P1 CHO-K1 cells; format: cell-based; settings: for hS1P1 B-arrestin2 pEC50: β-arrestin2 recruitment, S1P1 CHO-K1 cells; for Emax: CHO-K1, efficacy (SPAN) normalized to fingolimod, read-out: hS1P1 B-arrestin2 SPAN
Outline: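 Enzyme-fragment complementation read-out: agonist-driven β-arrestin2 binding to ProLink-tagged human S1P1 in stable CHO-K1 cells restores β-galactosidase, measured 1 h at room temperature after a 60 min 37° C. compound incubation. Potency as pEC50, efficacy relative to fingolimod (SPAN).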
Target sequence in this assay (P21453 whole entry, looked up): as above
Target sequence in this assay (P32121 whole entry partner, looked up): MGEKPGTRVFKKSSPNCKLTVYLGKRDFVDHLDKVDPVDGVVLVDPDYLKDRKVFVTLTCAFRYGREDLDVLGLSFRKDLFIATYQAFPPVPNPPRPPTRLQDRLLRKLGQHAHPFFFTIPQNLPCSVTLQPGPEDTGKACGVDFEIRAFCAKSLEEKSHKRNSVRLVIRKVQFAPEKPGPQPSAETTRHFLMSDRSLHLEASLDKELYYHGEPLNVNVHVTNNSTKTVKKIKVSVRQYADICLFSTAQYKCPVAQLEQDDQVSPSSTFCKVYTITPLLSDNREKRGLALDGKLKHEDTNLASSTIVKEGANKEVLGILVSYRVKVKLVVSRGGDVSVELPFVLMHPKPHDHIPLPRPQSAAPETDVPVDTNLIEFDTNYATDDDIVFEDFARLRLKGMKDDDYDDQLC

[6] = system: Freund's Complete Adjuvant induced inflammation / mechanical allodynia; experiment: Tactile allodynia produced by intraplantar Freund's Complete Adjuvant in rats (Randall-Selitto); format: in vivo, rat; settings: CFA model, 24 hours after CFA
Procedure: Animals were acclimated to the vivarium for at least 48 hr prior to behavioral testing. Inflammation was induced with the administration of an intraplantar (subcutaneous injection into the plantar surface of the hind paw, i.pl.) injection of 0.10 ml Freund's Complete Adjuvant (FCA). The experiments were conducted 24 hours after CFA administration. Rats are tested for mechanical allodynia in a Randall-Selitto apparatus. The inflamed paw is put on a pedestal and a pointed force of increasing intensity (0 to 250 grams) is applied to the paw. When the animal struggles to withdraw from the force the test is stopped and the force to induce that struggle is recorded. Data is presented as mean grams of force to withdrawal or a percentage of the maximum possible effect.

hERG channel = hERG channel (Homo sapiens (Human), UniProt Q12809); experiment: Automated Qpatch patch-clamp hERG assay
[7] = system: A2780 human ovarian carcinoma; experiment: A2780 human ovarian carcinoma xenograft tumor growth delay in athymic nude mice; settings: monotherapy vs control; paclitaxel i.v. qod×5; ozanimod or Compound 103 p.o. qd to end; 60-day study
Procedure: Female athymic nude mice (Crl:NU(NCr)-Foxnlnu, Charles River Laboratories) were implanted with A2780 human ovarian carcinoma cells to initiate tumor growth.
Each mouse received 1×10^7 cells (0.1 mL cell suspension) subcutaneously in the right flank, and tumors were monitored as their volumes approached the target range of 100 to 150 mm3. Fourteen days later, designated as Day 1 of the study, mice were sorted into six groups of ten each. […] Tumors were measured twice weekly for the study duration.
Starting on Day 1 of the study, six groups (n=10) of female athymic nude mice with established A2780 tumors were treated according to the following plan. Treatments were administered either by intravenous injection (i.v.) or oral gavage (p.o.) and were adjusted to the body weight of the individual animal. Group 1 received Vehicle 1, i.v., once every other day for five doses (qod×5) and Vehicle 2, p.o., once daily to the end of the study (qd to end), and served as the control group for efficacy analysis. Group 2, the paclitaxel monotherapy group, received paclitaxel i.v., qod×5 plus Vehicle 2, p.o., qd to end. Group 3, the ozanimod monotherapy group, received ozanimod p.o., qd to end plus Vehicle 1, i.v., qod×5. Combination Group 4 received ozanimod p.o., qd to end plus paclitaxel i.v., qod×5.
Animals were monitored individually, and each mouse was euthanized when its tumor reached the endpoint volume of 2000 mm3 or on the final day, whichever came first. The time to endpoint (TTE) was calculated for each mouse. Treatment outcome was determined from percent tumor growth delay (% TGD), defined as the percent increase in median TTE for treated versus control mice, with differences in TTE values between groups deemed statistically significant at P<0.05 using logrank survival analysis. Mice were also monitored for complete regression (CR) and partial regression (PR) responses. An animal with a CR at the end of the study was additionally classified as a tumor-free survivor (TFS). Treatment tolerability was assessed by body weight measurements and frequent observation for clinical signs of treatment-related side effects.

Sequence of hERG channel (Q12809 whole entry): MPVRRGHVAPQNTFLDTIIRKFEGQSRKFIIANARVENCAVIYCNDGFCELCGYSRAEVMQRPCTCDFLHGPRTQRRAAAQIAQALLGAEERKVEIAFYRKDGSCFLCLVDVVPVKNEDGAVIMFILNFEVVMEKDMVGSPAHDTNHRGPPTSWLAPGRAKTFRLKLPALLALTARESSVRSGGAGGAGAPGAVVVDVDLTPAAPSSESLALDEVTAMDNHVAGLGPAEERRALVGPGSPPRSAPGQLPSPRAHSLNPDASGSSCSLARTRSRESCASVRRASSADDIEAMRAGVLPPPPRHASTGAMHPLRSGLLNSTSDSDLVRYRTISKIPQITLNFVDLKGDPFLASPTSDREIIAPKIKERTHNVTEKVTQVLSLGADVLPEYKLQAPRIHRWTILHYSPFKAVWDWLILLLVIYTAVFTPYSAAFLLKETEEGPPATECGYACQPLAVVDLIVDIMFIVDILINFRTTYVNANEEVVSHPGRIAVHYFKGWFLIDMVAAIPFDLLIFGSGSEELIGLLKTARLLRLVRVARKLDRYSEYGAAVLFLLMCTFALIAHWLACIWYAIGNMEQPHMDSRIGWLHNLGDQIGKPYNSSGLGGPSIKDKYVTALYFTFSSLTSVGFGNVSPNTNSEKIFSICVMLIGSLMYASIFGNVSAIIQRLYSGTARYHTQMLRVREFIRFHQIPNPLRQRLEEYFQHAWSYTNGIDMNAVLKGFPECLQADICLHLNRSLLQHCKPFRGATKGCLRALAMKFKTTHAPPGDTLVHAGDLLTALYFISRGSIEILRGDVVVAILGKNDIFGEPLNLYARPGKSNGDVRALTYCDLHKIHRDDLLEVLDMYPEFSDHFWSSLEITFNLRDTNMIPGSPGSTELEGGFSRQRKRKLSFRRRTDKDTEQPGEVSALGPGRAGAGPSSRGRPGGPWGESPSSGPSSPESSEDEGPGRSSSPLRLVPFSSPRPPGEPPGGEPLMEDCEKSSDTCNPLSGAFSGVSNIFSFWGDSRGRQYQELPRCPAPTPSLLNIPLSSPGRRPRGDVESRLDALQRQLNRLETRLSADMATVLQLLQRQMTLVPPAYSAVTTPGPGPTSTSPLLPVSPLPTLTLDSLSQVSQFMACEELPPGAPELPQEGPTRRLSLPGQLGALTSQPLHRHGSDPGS

## COc1ccc(-c2noc(-c3ccc4c(c3)nnn4C(C)C)n2)c(C)c1 [Compound 55, 5-(1-isopropyl-1H-benzo[d][1,2,3]triazol-5-yl)-3-(4-methoxy-2-methylphenyl)-1,2,4-oxadiazole]
[1]
  Lymphopenia: Effect and Doses, mg/kg, sc: no change: 6 mg/kg, 7 days
[2]
  Screen @ 3 mg/kg sc (% MPE): >50 % MPE
[3]
  inhibition in vivo at 1 mg/kg: < 50%
[4]
  hS1P1 cAMP pEC50: >6.5
[5]
  hS1P1 B-arrestin2 pEC50: >5

## Cc1cnccc1-c1nc(-c2ccc3c(ccn3C(C)C)c2)no1 [Compound 142, 3-(1-isopropyl-1H-indol-5-yl)-5-(3-methylpyridin-4-yl)-1,2,4-oxadiazole]
[1]
  Lymphopenia: Effect and Doses, mg/kg, sc: no change: 6 mg/kg, 7 days
[2]
  Screen @ 3 mg/kg sc (% MPE): >50 % MPE
[3]
  inhibition in vivo at 3 mg/kg: > 50%
  inhibition in vivo at 1 mg/kg: > 50%
[4]
  Emax: > 75%
  hS1P1 cAMP pEC50: >6.5
[5]
  Emax: > 75%
  hS1P1 B-arrestin2 pEC50: >5
[6]
  Active Doses, mg/kg sc (>50% MPE): ≥0.1 mg/kg

## Cc1ccsc1-c1noc(-c2ccc3c(c2)nnn3C(C)C)n1 [Compound 169, 5-[3-(3-methylthiophen-2-yl)-1,2,4-oxadiazol-5-yl]-1-(propan-2-yl)-1H-1,2,3-benzotriazole]
[1]
  Lymphopenia: Effect and Doses, mg/kg, sc: no change: 6 mg/kg, 7 days
[2]
  Screen @ 3 mg/kg sc (% MPE): >50 % MPE
[3]
  inhibition in vivo at 1 mg/kg: > 50%
[4]
  hS1P1 cAMP pEC50: >6.5
[5]
  hS1P1 B-arrestin2 pEC50: >5

## N#Cc1cc(-c2nc(-c3ccc4c(c3)NC(=O)C4)no2)ccc1NCC1CC1 [Compound 497, 2-((cyclopropylmethyl)amino)-5-(3-(2-oxoindolin-6-yl)-1,2,4-oxadiazol-5-yl)benzonitrile]
[3]
  inhibition in vivo at 3 mg/kg: < 50%
[4]
  hS1P1 cAMP pEC50: >6.5
[5]
  hS1P1 B-arrestin2 pEC50: >5
hERG channel
  IC50: > 10 µM

## CC(F)(F)CNc1ccc(-c2nnc(-c3ccc4[nH]cnc4c3)o2)cc1C#N [Compound 520, 5-[5-(1H-1,3-benzodiazol-5-yl)-1,3,4-oxadiazol-2-yl]-2-[(2,2-difluoropropyl)amino]benzonitrile]
[1]
  Lymphopenia: Effect and Doses, mg/kg, sc: no change: 6 mg/kg, 7 days
[3]
  inhibition in vivo at 3 mg/kg: > 50%
[4]
  Emax: > 75%
  hS1P1 cAMP pEC50: >6.5
[5]
  Emax: > 75%
  hS1P1 B-arrestin2 pEC50: >5
hERG channel
  IC50: > 10 µM

## CC(C)Nc1ccc(-c2nc(-c3ccc4nonc4c3)no2)cc1C#N [Compound 730, 5-[3-(2,1,3-benzoxadiazol-5-yl)-1,2,4-oxadiazol-5-yl]-2-[(propan-2-yl)amino]benzonitrile]
[1]
  Lymphopenia: Effect and Doses, mg/kg, sc: no change: 6 mg/kg, 7 days
[3]
  inhibition in vivo at 3 mg/kg: > 50%
hERG channel
  IC50: > 10 µM

## CC(C)Oc1ccc(-c2ncc(-c3ccccn3)cn2)cc1C#N [Compound 742, 2-isopropoxy-5-(5-(pyridin-2-yl)pyrimidin-2-yl)benzonitrile]
hERG channel
  IC50: > 10 µM

## CC(C)Nc1ccc(-c2ncc(-c3ccnc(O)c3)cn2)cc1C#N [Compound 743, 5-(5-(2-hydroxypyridin-4-yl)pyrimidin-2-yl)-2-(isopropylamino) benzonitrile]
hERG channel
  IC50: > 10 µM

## CC(C)Oc1ccc(-c2ncc(-c3ccnc(O)c3)cn2)cc1C#N [Compound 744, 5-(5-(2-hydroxypyridin-4-yl)pyrimidin-2-yl)-2-isopropoxybenzonitrile]
hERG channel
  IC50: > 10 µM

## CC(=O)O[C@H]1C(=O)[C@@]2(C)[C@H]([C@H](OC(=O)c3ccccc3)[C@]3(O)C[C@H](OC(=O)[C@H](O)[C@@H](NC(=O)c4ccccc4)c4ccccc4)C(C)=C1C3(C)C)[C@]1(OC(C)=O)CO[C@@H]1C[C@@H]2O [Paclitaxel, reference compound]
[7]
  percent tumor growth delay (% TGD), monotherapy: 128%

## CC(C)Oc1ccc(-c2nc(-c3cccc4c3CC[C@@H]4NCCO)no2)cc1C#N [ozanimod, reference compound]
[7]
  percent tumor growth delay (% TGD), monotherapy: 31%
